Assay results published in patent publication US20110086834A1, “ALKYNYL ALCOHOLS AS KINASE INHIBITORS” (AMGEN INC., priority 2008, published 2011).
pIC50, pKi: −log10 of the molar value. Like-named read-outs stand apart in the source and are kept apart here.

Experiments:
[1] = molecular target: T1, NIK (Homo sapiens, UniProt Q99558); experiment: chemiluminescent (CL) assay for NIK IC50 determination; format: biochemical; conditions: truncated NIK (catalytic domain only), autophosphorylation; 50 nM biotinylated-NIK; 50 μM ATP; room temperature, 1 hour
T1 construct: Both assays utilize a truncated form of NIK containing only the catalytic domain; made in house; host or cells: baculovirus expression system (insect cells implied)
T1 sequence (Q99558 400-655 limits assumed): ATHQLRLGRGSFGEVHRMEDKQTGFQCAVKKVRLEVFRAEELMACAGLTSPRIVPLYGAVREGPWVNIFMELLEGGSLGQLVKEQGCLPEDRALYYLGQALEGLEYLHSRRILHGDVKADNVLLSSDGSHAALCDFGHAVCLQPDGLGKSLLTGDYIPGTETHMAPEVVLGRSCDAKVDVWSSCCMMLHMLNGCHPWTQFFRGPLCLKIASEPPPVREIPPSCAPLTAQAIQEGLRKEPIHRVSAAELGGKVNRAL
Protocol: Two formats of biochemical assays are implemented: (1) chemiluminescent (CL) assay for NIK IC50 determination; (2) homogenous time resolved fluorescence (HTRF) assay for NIK Ki measurement. […] The NIK proteins are purified with baculovirus expression system and further biotinylated with N-hydroxysuccinamide biotin ester (Sigma). […] The reaction mixtures are then immobilized on a Streptavidin-coated plate (Pierce). […] For the HTRF assay, 10 nM of enzyme are incubated with compounds in the presence of 20, 100, 200, or 500 μM of ATP in a buffer with 20 mM of Hepes pH7.5, 20 mM of MgCl2, 0.2% of Tween 20 and 1 mM of DTT at room temperature for 2 hours.

[2] = molecular target: T1, NIK; experiment: homogenous time resolved fluorescence (HTRF) assay for NIK Ki measurement; format: biochemical
[3] = truncated NIK (catalytic domain only), autophosphorylation, 10 nM enzyme, 20, 100, 200 or 500 μM ATP, room temperature, 2 hours, read-out: Ki activity in the homogenous time resolved fluorescence (HTRF) assay for NIK

Row | SMILES | pIC50 [1] | pKi [2, 3] | further results
1 | CN1CCC2(C1)CN(c1ccnc(N)n1)c1cc(C#CC3(O)CCCC3)ccc12 (racemic) [Example 189, (rac)-1-((1-(2-Amino-4-pyrimidinyl)-1′-methyl-1,2-dihydrospiro[indole-3,3′-pyrrolidin]-6-yl)ethynyl)cyclopentanol] | > 6.00 |  | 
2 | CC1(CCO)CN(c2nc(N)ncc2Cl)c2cc(C#CC3(O)CCCC3)ccc21 (stereo not drawn) [Example 51, 1-((1-(2-amino-5-chloro-4-pyrimidinyl)-3-(2-hydroxyethyl)-3-methyl-2,3-dihydro-1H-indol-6-yl)ethynyl)cyclopentanol] | > 6.00 |  | 
3 | COCCn1cc(-c2nc(N)ncc2Cl)c2cc(C#CC(C)(O)c3nccs3)ccc21 (stereo not drawn) [Example 115, 4-(3-(2-amino-5-chloropyrimidin-4-yl)-1-(2-methoxyethyl)-1H-indol-5-yl)-2-(thiazol-2-yl)but-3-yn-2-ol] | > 6.00 |  | 
4 | Nc1ncc(Cl)c(-c2cn(C(=O)c3cccnc3)c3ccc(C#CC4(O)CCCC4)cc23)n1 [Example 123, (3-(2-amino-5-chloropyrimidin-4-yl)-5-(2-(1-hydroxycyclopentyl)ethynyl)-1H-indol-1-yl)(pyridin-3-yl)methanone] | > 6.00 |  | 
5 | Nc1ncc(Cl)c(-c2cn(C3CCOC3)c3ccc(C#CC4(O)CCCC4)cc23)n1 (stereo not drawn) [Example 138, 1-(2-(3-(2-amino-5-chloropyrimidin-4-yl)-1-(tetrahydrofuran-3-yl)-1H-indol-5-yl)ethynyl)cyclopentanol] | > 6.00 |  | 
6 | COCCn1cc(-c2nc(N)ncc2Cl)c2cc(C#CC3(O)CC[C@@H](C)C3)ccc21 (stereo partly drawn) [Example 140, (3R)-1-(2-(3-(2-amino-5-chloropyrimidin-4-yl)-1-(2-methoxyethyl)-1H-indol-5-yl)ethynyl)-3-methylcyclopentanol] | > 6.00 |  | 
7 | COCCOc1cnc(N)nc1-c1c[nH]c2ccc(C#CC(O)(c3ccccc3)C(F)(F)F)cc12 (stereo not drawn) [Example 235, 4-(3-(2-Amino-5-(2-methoxyethoxy)-4-pyrimidinyl)-1H-indol-5-yl)-1,1,1-trifluoro-2-phenyl-3-butyn-2-ol] | > 6.00 |  | 
8 | O=C(c1ccc(Nc2nccc(N3CCc4ccc(C#CC5(O)CCCC5)cc43)n2)cc1)N1CCOCC1 [Example 263, 1-((1-(2-((4-(4-morpholinylcarbonyl)phenyl)amino)-4-pyrimidinyl)-2,3-dihydro-1H-indol-6-yl)ethynyl)cyclopentanol] | > 6.00 |  | 
9 | CC(O)(C#Cc1ccc2c(c1)N(c1nc(N)ncc1Cl)CC2)c1nccs1 (stereo not drawn) [Example 286, 4-(1-(2-Amino-5-chloro-4-pyrimidinyl)-2,3-dihydro-1H-indol-6-yl)-2-(1,3-thiazol-2-yl)-3-Butyn-2-ol] | > 6.00 |  | 
10 | Cc1cnc(C(C)(O)C#Cc2ccc3c(c2)N(c2ccncc2)CC3(C)C)s1 (stereo not drawn) [Example 311, 4-(3,3-Dimethyl-1-(4-pyridinyl)-2,3-dihydro-1H-indol-6-yl)-2-(5-methyl-1,3-thiazol-2-yl)-3-butyn-2-ol] |  | > 6.00 | 
11 | CC(O)(C#Cc1ccc2c(c1)N(c1ncncc1Cl)CC2(C)C)c1nccs1 (stereo not drawn) [Example 312, 4-(1-(5-chloro-4-pyrimidinyl)-3,3-dimethyl-2,3-dihydro-1H-indol-6-yl)-2-(1,3-thiazol-2-yl)-3-butyn-2-ol] |  | > 6.00 | 
12 | CC(O)(C#Cc1ccc2c(c1)N(c1ccncc1Cl)CC2(C)C)c1nccs1 (stereo not drawn) [Example 313, 4-(1-(3-Chloro-4-pyridinyl)-3,3-dimethyl-2,3-dihydro-1H-indol-6-yl)-2-(1,3-thiazol-2-yl)-3-butyn-2-ol] |  | 4.52 to 6.00 | 
13 | CC(O)(C#Cc1ccc2c(c1)N(c1ccncc1Cl)CC2(C)C)c1ncco1 (stereo not drawn) [Example 314, 4-(1-(3-chloro-4-pyridinyl)-3,3-dimethyl-2,3-dihydro-1H-indol-6-yl)-2-(1,3-oxazol-2-yl)-3-butyn-2-ol] |  | > 6.00 | 
14 | CC(O)(C#Cc1cccc(Oc2nc(N)ncc2Cl)c1)c1nccs1 (stereo not drawn) [Example 315, 4-(3-((2-amino-5-chloro-4-pyrimidinyl)oxy)phenyl)-2-(1,3-thiazol-2-yl)-3-butyn-2-ol] |  | > 6.00 | 
15 | Cc1cnc(C(C)(O)C#Cc2ccc3c(c2)N(c2ccnc(N)n2)CC3)o1 (stereo not drawn) [Example 316, 4-(1-(2-Amino-4-pyrimidinyl)-2,3-dihydro-1H-indol-6-yl)-2-(5-methyl-1,3-oxazol-2-yl)-3-Butyn-2-ol] |  |  | pKi [2]: > 6.00
16 | CC(O)(C#Cc1ccc2c(c1)N(c1nc(N)ncc1Cl)CC21CCCC1)c1nccs1 (stereo not drawn) [Example 317, 4-(1′-(2-amino-5-chloro-4-pyrimidinyl)-1′,2′-dihydrospiro[cyclopentane-1,3′-indol]-6′-yl)-2-(1,3-thiazol-2-yl)-3-Butyn-2-ol] |  | > 6.00 | 
17 | C[C@@](O)(C#Cc1ccc2c(c1)N(c1nc(N)ncc1Cl)CC21CCCC1)c1nccs1 [Example 318] |  | > 6.00 | 
18 | CC(O)(C#Cc1ccc2c(c1)N(c1nc(N)ncc1Cl)CC21CCCC1)c1ncco1 (stereo not drawn) [Example 319, 4-(1′-(2-Amino-5-chloro-4-pyrimidinyl)-1′,2′-dihydrospiro[cyclopentane-1,3′-indol]-6′-yl)-2-(1,3-oxazol-2-yl)-3-butyn-2-ol] |  | > 6.00 | 
